Measured values from patent US20140011853A1, “SUBSTITUTED 3-(BIPHENYL-3-YL)-8,8-DIFLUORO-4-HYDROXY-1-AZASPIRO[4.5]DEC-3-EN-2-ONES FOR THERAPY” (BAYER INTELLECTUAL PROPERTY GMBH, priority 2011, published 2014).
“And” between values parts separate entries of the source, which are not always exact repeats. Equal values may be shown once. Read-outs that look alike come from different tables or passages of the source.

Tests used:
[1] = test system: KM12; experiment: Tumour cell proliferation, CellTiter-Glo, 96-hour incubation, KM12; type: cell-based; conditions: Homo sapiens, KM12, 96 h, read-out: KM12 IC50
Procedure: (§1) In accordance with the invention, the substances were tested in cell-based assays for the ability of the substances of inhibiting tumour cell proliferation after a 96-hour incubation with the substance. Cell viability was tested using the CellTiter-Glo® luminescent cell viability assay (Promega). The cells were sown at a density of 2000-5000 cells/well (depending on the cell line) in 100 μl growth medium on 96-well microtiter plates. For each cell line examined, cells were sown on a separate plate to determine the luminescence at t=0 hours and t=96 hours. After overnight incubation at 37° C., the luminescence values for the t=0 samples were determined. The dose plates for the t=96 hours points in time were treated with substances diluted with growth medium. The cells were then incubated at 37° C. for 96 hours, and the luminescence values for the t=96 hours samples were then determined. For data analysis, the t=0 values were subtracted from the t=96 hours values for treated and untreated samples. The differences in luminescence in percent between substance-treated samples and control values were used to determine the growth inhibition in percent.
(§2) The substances were tested in the following cell lines which represent the stated indications in an exemplary manner: […]

[2] = test system: PC3; experiment: Tumour cell proliferation, CellTiter-Glo, 96-hour incubation, PC3; type: cell-based; conditions: Homo sapiens, PC-3, 96 h, read-out: PC3 IC50
Procedure: as §1, §2

[3] = test system: H460; experiment: Tumour cell proliferation, CellTiter-Glo, 96-hour incubation, H460; type: cell-based; conditions: Homo sapiens, NCI-H460, 96 h, read-out: H460 IC50
Procedure: as §1, §2

[4] = Plasma protein binding by equilibrium dialysis, human; type: in vitro ADME; conditions: read-out: fu (human)
Procedure: (§3) The binding of test substances to plasma proteins is determined by equilibrium dialysis by means of the Ht-dialysis apparatus (96-well) made of Teflon and a semipermeable membrane (regenerated cellulose, MWCO 12-14K). This separates 150 μl each of a plasma side and a buffer side (50 mM phosphate buffer). The test substance is added in 2 concentrations (usually 3 and 0.3 μM) to the plasma side and binds to plasma proteins. The unbound fraction of the test substance passes through the membrane and is distributed on either side until equilibrium is established (after approx. 6-8 h at 37° C.). The substance concentration on the buffer side and the plasma side is determined by LC-MS analysis. For this, both sides are brought by dilution with buffer or plasma to the same matrix (10% plasma) and then precipitated with methanol. The free (unbound) fraction (fu) is calculated from the quotient of the buffer and plasma concentration. Stability tests and recovery tests are run concurrently as controls. In addition, the substance in buffer is dialysed against buffer, to check the nonspecific binding to apparatus and membrane and establishment of equilibrium. Because during incubation the osmotic pressure of the plasma proteins leads to dilution of the plasma (volume shift), this possible error is determined by weighing blank plasma samples and is included in the calculation of fu. Establishment of equilibrium and plasma stability should have a value not lower than 80% and the recovery should be at least 30%. A free fraction of <1% is regarded as high, between 1 and 10% as moderate and >10% as low plasma protein binding.

[5] = Plasma protein binding by equilibrium dialysis, mouse; type: in vitro ADME; conditions: read-out: fu (mouse)
Procedure: as §3

[6] = Pharmacokinetic parameters in the rat (i.v. and intragastric); type: in vivo; conditions: for clearance / Vd / half-life: male, iv; for clearance: read-out: CLplasma (converted); for Vd: read-out: Vss; for half-life: read-out: t½ (converted)
Procedure: For this, the test substances were applied in dissolved form both for intravenous, and for intragastric application, wherein compatible solubilizers such as PEG400 and/or ethanol were used in a compatible amount.
(§4) The test substances were applied at a dose of 0.1-1 mg/kg. Administration was as a bolus injection in the male rat and as an infusion in the female dog (15 min). At various time points after the bolus injection, and before and after the 15-minute infusion, blood samples of about 100-150 μl were removed via a catheter either from the jugular vein (rat) or from the saphenous vein (dog). Lithium-heparin was added as anticoagulant to the blood samples and they were stored in a refrigerator until required for further processing. After centrifugation of the samples for 15 min at 3000 rpm, an aliquot of 100 μl was taken from the supernatant (plasma) and was precipitated by adding 400 μl of cold ACN or methanol (absolute). The precipitated samples were frozen-out at 20° C. overnight, then centrifuged again at 3000 rpm for 15 min, before 150 μl of the clear supernatant were removed to determine the concentration. The analysis was effected by means of an Agilent 1200 HPLC system with connected LCMS/MS detection.
Calculation of the PK parameters (using PK calculation software, e.g. WinNonLin®): CLplasma: total plasma clearance of the test substance (in l*kg/h); CLblood: total blood clearance of the test substance (in l*kg/h),
where (CLblood=CLplasma*Cp/Cb); Vss: apparent steady-state distribution volume (in 1/kg); t1/2: half-life within a specified interval (here: terminal t1/2, in h); AUCnorm: area under the plasma concentration time profile from time point zero extrapolated to infinity divided by the dose normalized for body weight (in kg*l/h); AUC(0-tn)norm: integrated area under the plasma concentration time profile from time point zero until the last time point at which a plasma concentration was measurable, divided by the dose normalized for body weight (in kg*l/h); Cmax: maximum concentration of the test substance in the plasma (in μg/l); Cmax,norm: maximum concentration of the test substance in the plasma divided by the dose normalized for body weight (in kg/1); Cb/Cp: ratio of the blood to plasma concentration distribution.
as §4, with “administered to fasting male rats or female dogs” for “applied”, “0.3-1 mg/kg intragastrically” for “0.1-1 mg/kg. Administration was”, “using a feeding tube.” for “injection in the male rat and as an infusion in the female dog (15 min).”, “administration,” for “the bolus injection, and before and after the 15-minute infusion,”, “−20°” for “20°”, “centrifuged” for “centrifuged again”
Calculation of the PK Parameters (Using PK Calculation Software, e.g. WinNonLin®): […]

[7] = target: human ACC2 (Homo sapiens, UniProt O00763); experiment: Human ACC2 enzyme assay (ADP-Glo); conditions: ACC 2 IC50, individual measurements
[8] = test system: Phaedon cochleariae; experiment: Phaedon test (PHAECO spray treatment); conditions: 500 g/ha, after 7 days
[9] = target: human serum albumin (HSA) (Homo sapiens, UniProt P02768); experiment: Protein binding to human serum albumin (HSA-Transil)
human serum albumin (HSA), sequence (P02768 25-609): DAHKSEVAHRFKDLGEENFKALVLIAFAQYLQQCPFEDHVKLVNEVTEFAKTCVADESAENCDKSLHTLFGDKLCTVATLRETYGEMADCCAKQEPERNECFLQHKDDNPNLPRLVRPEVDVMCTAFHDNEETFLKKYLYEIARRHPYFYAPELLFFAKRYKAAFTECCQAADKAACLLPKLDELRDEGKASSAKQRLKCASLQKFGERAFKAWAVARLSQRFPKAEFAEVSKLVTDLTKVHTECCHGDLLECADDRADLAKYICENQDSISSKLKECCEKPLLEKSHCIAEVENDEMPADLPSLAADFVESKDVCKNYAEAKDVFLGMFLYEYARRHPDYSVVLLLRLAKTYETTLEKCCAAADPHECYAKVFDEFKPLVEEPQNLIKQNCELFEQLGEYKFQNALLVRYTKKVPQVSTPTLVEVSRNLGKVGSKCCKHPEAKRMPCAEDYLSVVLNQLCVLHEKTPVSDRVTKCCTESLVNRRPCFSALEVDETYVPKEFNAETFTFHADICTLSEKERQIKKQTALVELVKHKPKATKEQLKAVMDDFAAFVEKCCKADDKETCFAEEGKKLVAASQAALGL

human ACC2, sequence (O00763 27-2458 limits assumed): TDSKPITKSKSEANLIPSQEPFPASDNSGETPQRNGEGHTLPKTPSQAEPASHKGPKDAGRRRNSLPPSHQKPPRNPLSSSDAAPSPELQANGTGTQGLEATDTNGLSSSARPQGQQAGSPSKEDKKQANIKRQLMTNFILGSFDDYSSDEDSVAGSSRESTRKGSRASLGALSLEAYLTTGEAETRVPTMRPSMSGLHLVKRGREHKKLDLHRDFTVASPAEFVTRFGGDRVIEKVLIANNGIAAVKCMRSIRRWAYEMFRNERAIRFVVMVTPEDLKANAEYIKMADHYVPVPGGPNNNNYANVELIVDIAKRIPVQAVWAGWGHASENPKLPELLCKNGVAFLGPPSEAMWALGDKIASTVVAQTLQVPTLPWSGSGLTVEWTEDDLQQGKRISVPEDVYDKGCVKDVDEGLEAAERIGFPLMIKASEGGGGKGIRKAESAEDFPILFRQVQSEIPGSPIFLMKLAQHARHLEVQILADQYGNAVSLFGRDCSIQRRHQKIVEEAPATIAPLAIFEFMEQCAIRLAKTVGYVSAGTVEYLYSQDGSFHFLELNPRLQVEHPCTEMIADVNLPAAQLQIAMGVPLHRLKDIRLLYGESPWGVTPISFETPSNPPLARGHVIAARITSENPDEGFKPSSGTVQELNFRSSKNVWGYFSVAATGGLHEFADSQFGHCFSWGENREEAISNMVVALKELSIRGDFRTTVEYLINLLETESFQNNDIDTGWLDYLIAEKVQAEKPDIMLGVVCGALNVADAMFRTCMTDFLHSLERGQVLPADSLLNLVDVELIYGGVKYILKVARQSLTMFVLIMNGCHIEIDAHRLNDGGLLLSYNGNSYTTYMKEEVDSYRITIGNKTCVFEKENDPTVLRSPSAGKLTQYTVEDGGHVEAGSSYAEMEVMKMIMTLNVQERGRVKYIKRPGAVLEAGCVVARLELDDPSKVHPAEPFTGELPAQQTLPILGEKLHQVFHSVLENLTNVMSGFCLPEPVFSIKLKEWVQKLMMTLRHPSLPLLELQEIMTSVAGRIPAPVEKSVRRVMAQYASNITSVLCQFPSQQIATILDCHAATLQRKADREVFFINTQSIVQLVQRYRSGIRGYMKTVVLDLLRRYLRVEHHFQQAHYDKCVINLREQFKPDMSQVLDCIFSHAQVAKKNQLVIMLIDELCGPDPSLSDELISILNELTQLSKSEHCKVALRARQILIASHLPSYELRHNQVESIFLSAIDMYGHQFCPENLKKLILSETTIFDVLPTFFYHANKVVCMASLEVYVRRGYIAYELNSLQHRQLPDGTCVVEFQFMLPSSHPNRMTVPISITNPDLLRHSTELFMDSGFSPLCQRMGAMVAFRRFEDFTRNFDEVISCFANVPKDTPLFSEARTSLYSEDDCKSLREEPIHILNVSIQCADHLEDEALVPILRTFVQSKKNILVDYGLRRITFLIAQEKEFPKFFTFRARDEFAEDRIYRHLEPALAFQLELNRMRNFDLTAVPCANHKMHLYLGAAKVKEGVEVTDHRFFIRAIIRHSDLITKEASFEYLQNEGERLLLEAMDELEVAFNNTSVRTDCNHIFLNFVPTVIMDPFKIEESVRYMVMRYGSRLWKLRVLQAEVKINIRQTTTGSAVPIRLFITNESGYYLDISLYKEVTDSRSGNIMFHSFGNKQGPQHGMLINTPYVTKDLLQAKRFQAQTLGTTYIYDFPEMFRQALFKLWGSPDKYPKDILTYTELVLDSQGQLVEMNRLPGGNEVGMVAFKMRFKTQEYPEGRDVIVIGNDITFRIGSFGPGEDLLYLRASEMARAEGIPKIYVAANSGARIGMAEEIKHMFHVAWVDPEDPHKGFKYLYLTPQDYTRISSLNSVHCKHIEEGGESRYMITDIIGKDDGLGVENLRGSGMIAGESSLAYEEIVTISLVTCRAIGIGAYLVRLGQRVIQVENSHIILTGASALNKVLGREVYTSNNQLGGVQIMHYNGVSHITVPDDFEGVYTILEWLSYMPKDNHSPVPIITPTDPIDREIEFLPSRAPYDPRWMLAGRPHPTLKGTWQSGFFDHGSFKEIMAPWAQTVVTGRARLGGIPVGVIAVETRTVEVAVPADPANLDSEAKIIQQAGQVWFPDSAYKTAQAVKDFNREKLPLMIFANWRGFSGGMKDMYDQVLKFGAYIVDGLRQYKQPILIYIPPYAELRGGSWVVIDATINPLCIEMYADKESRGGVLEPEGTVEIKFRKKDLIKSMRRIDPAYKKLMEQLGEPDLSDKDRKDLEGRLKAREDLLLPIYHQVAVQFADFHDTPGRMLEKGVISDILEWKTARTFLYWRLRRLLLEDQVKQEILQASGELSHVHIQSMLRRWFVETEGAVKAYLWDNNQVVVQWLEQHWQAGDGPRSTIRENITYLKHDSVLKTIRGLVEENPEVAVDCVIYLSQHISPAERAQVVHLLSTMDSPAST

| SMILES | IC50 [1] [nM] | IC50 [2] [nM] | IC50 [3] [nM] | fraction unbound [4] | fraction unbound [5] | CLblood [6] [mL/min/kg] | F [6] [%] | clearance ([6]; plasma) [mL/min/kg] | Vd ([6]; plasma) [L/kg] | half-life ([6]; plasma) [h] | IC50 [7] | effect (kill of beetle larvae) [8] [%] | Kd [9] [nM] | clearance ([6]; in vivo) [mL/min/kg] | Vd ([6]; in vivo) [L/kg] | half-life ([6]; in vivo) [h] |
| --- | --- | --- | --- | --- | --- | --- | --- | --- | --- | --- | --- | --- | --- | --- | --- | --- |
| Cc1ccc(-c2ccc(Cl)c(F)c2)cc1C1=C(O)C2(CCC(F)(F)CC2)NC1=O [Example 1-1, 3-(4′-Chloro-3′-fluoro-4-methylbiphenyl-3-yl)-8,8-difluoro-4-hydroxy-1-azaspiro[4.5]dec-3-en-2-one] | 28 | 39 | 131 | 0.0035 | 0.0184 | 0.367 | 95 | 0.167 | 0.55 | 40 | 3370 nM and 2110 nM and 2510 nM and 3740 nM and 957 nM and 1910 nM and 2780 nM and 3240 nM | 100 | 3040 |  |  |  |
| Cc1ccc(-c2ccc(Cl)cc2)cc1C1=C(O)C2(CCC(F)(F)CC2)NC1=O [Example 1-2, 3-(4′-Chloro-4-methylbiphenyl-3-yl)-8,8-difluoro-4-hydroxy-1-azaspiro[4.5]dec-3-en-2-one] | 58 | 50 | 134 | 0.0042 | 0.0349 | 0.2 | 123 |  |  |  | 2350 nM and 2070 nM and 2450 nM and 2790 nM and 650 nM and 1280 nM and 1230 nM and 1740 nM | 100 | 3860 | 0.1 | 0.36 | 52 |
